Data as given in patent US20170065593A1, “Combination” (Novartis AG, priority 2009, published 2017).
Where two headings read alike, the source gives them in different places. Each block holds one molecule with its values, some of them ahead of it.

Tests used:
NCI-H1573 = test: Cell growth inhibition assay (Cell Titer Glo, 3 days); type: cell-based, Human; conditions: NCI-H1573 (KRAS-G12A), single agent, mean ± std
Description: (§1) Human tumor cell lines from lung cancer, A427, A549, Calu1, Calu3, Calu6, COR-L23, HOP62, MV522, NCI-H1155, NCI-H1299, NCI-H1355, NCI-H1395, NCI-H157, NCI-H1573, NCI-H1666, NCI-1755, NCI-H1792, NCI-2009, NCI-H2030, NCI-H2122, NCI-H2291, NCI-H23, NCI-H2347, NCI-H358, NCI-H441, NCI-H460, NCI-H650, NCI-H727, SW1573 and SW900 were cultured in RPMI 1640 medium containing 10% fetal bovine serum (FBS). Cell line mutation data was collated for the status for the RAS and RAF genes. The data source is the cancer cell line mutation screening data published as part of the Catalog of Somatic Mutations in Cancer database (COSMIC) (Bamford S. et al. Br. J. Cancer. 2004. 91:355-58) and/or in house DNA sequencing.
(§2) Cells were seeded in a 96-well tissue culture plate (NUNC 136102) of RPMI medium containing 10% FBS at 500-2,000 cells per well. Approximately 24 hours after plating, cells were exposed to ten, two-fold or three-fold serial dilutions of either Compound A or B or the combination of the two agents at a 10:1 molar ratio (Compounds A and B respectively). The final dosing concentration range for Compound A was 2-1000 nM and was 0.2-100 nM for Compound B. Cells were incubated in the presence of compounds for 3 days. ATP levels were determined by adding Cell Titer Glo® (Promega) according to the manufacturer's protocol. Briefly, Cell Titer Glo® was added to each plate, incubated for 20 minutes then luminescent signal was read on the SpectraMax L plate reader with a 0.5 sec integration time. All assays were run at least in duplicate.
(§3) Inhibition of cell growth was estimated after treatment with compound or combination of compounds for three days and comparing the signal to cells treated with vehicle (DMSO). Cell growth was calculated relative to vehicle (DMSO) treated control wells. Concentration of compound that inhibits 50% of control cell growth (IC50) was back-interpolated when y=50% of DMSO treated control wells using nonlinear regression with the equation: […]

MV522 = test: as above; type: cell-based, Human; conditions: MV522 (BRAF_V600E), single agent, mean ± std
Description: as §1, §2, §3

NCI-H1792 = test: as above; type: cell-based, Human; conditions: NCI-H1792 (KRAS_G12C), single agent, mean ± std
Description: as §1, §2, §3

NCI-H1355 = test: as above; type: cell-based, Human; conditions: NCI-H1355 (KRAS_G13C), single agent, mean ± std
Description: as §1, §2, §3

NCI-H2291 = test: as above; type: cell-based, Human; conditions: NCI-H2291 (KRAS_G12F), single agent, mean ± std
Description: as §1, §2, §3

CORL23 = test: as above; type: cell-based, Human; conditions: CORL23 (KRAS_G12V), single agent, mean ± std
Description: as §1, §2, §3

NCI-H2030 = test: as above; type: cell-based, Human; conditions: NCI-H2030 (KRAS_G12C), single agent, mean ± std
Description: as §1, §2, §3

NCI-H441 = test: as above; type: cell-based, Human; conditions: NCI-H441 (KRAS_G12V), single agent, mean ± std
Description: as §1, §2, §3

NCI-H460 = test: as above; type: cell-based, Human; conditions: NCI-H460 (KRAS_Q61H), single agent, mean ± std
Description: as §1, §2, §3

NCI-H2347 = test: as above; type: cell-based, Human; conditions: NCI-H2347 (RAS_H, N_Q61R), single agent, mean ± std
Description: as §1, §2, §3

NCI-H1299 = test: as above; type: cell-based, Human; conditions: NCI-H1299 (NRAS_Q61K), single agent, mean ± std
Description: as §1, §2, §3

NCI-H157 = test: as above; type: cell-based, Human; conditions: NCI-H157 (KRAS_G12R), single agent, mean ± std
Description: as §1, §2, §3

SW900 = test: as above; type: cell-based, Human; conditions: SW900 (KRAS_G12V), single agent, mean ± std
Description: as §1, §2, §3

NCI-H23 = test: as above; type: cell-based, Human; conditions: NCI-H23 (KRAS_G12C), single agent, mean ± std
Description: as §1, §2, §3

NCI-H1755 = test: as above; type: cell-based, Human; conditions: NCI-H1755 (BRAF_G469A), single agent, mean ± std
Description: as §1, §2, §3

A549 = test: as above; type: cell-based, Human; conditions: A549 (KRAS_G12S), single agent, mean ± std
Description: as §1, §2, §3

NCI-H2009 = test: as above; type: cell-based, Human; conditions: NCI-H2009 (KRAS-G12A), single agent, mean ± std
Description: as §1, §2, §3

Calu1 = test: as above; type: cell-based, Human; conditions: Calu1 (KRAS_G12C), single agent, mean ± std
Description: as §1, §2, §3

HOP62 = test: as above; type: cell-based, Human; conditions: HOP62 (KRAS_G12C), single agent, mean ± std
Description: as §1, §2, §3

[1] = system: panel of 29 human lung tumor cell lines; test: Cell growth inhibition, summary over the panel; type: cell-based; conditions: out of 29 lines; single agent
Description: as §1
Cells were seeded in a 96-well tissue culture plate (NUNC 136102) of RPMI medium containing 10% FBS at 500-2,000 cells per well. […] ATP levels were determined by adding Cell Titer Glo® (Promega) according to the manufacturer's protocol. Briefly, Cell Titer Glo® was added to each plate, incubated for 20 minutes then luminescent signal was read on the SpectraMax L plate reader with a 0.5 sec integration time. […]
Inhibition of cell growth was estimated after treatment with compound or combination of compounds for three days and comparing the signal to cells treated with vehicle (DMSO). Cell growth was calculated relative to vehicle (DMSO) treated control wells. […]

[2] = Homo sapiens, 72 h, read-out: IC50 Single Agent Compound B
[3] = read-out: IC50 Single Agent Compound A

- IC50 (NCI-H1573; [2]): > 100 nM
- IC50 (NCI-H1792; [2]): > 100 nM
- IC50 (NCI-H1355; [2]): > 100 nM
- IC50 (NCI-H2291; [2]): > 100 nM
- IC50 (NCI-H2030; [2]): > 10 nM
- IC50 (NCI-H441; [2]): > 100 nM
- IC50 (NCI-H460; [2]): > 70 nM
- IC50 (NCI-H2347; [2]): > 100 nM
- IC50 (NCI-H1299; [2]): > 100 nM
- IC50 (NCI-H157; [2]): > 100 nM
- IC50 (SW900; [2]): > 100 nM
- IC50 (NCI-H23; [2]): > 100 nM
- IC50 (NCI-H1755; [2]): > 100 nM
- IC50 (A549; [2]): 3 ± 3 nM
- IC50 (NCI-H2009; [2]): > 100 nM
- IC50 (Calu1; Homo sapiens, Calu-1, 72 h, read-out: IC50 Single Agent Compound B): > 100 nM
- number of lines sensitive (IC50s<100 nM) [1]: 2
Molecule: CO[C@H]1C[C@@H]2CC[C@@H](C)[C@@](O)(O2)C(=O)C(=O)N2CCCC[C@H]2C(=O)O[C@H]([C@H](C)C[C@@H]2CC[C@@H](OCCO)[C@H](OC)C2)CC(=O)[C@H](C)/C=C(\C)[C@@H](O)[C@@H](OC)C(=O)[C@H](C)C[C@H](C)/C=C/C=C/C=C/1C [Compound B, everolimus]
- IC50 (MV522; [2]): > 100 nM
- IC50 (CORL23; Homo sapiens, COR-L23, 72 h, read-out: IC50 Single Agent Compound B): > 100 nM
- IC50 (HOP62; Homo sapiens, HOP-62, 72 h, read-out: IC50 Single Agent Compound B): > 100 nM

Molecule: N-{3-[3-cyclopropyl-5-(2-fluoro-4-iodo-phenylamino)6,8-dimethyl;-2,4,7-trioxo-3,4,6,7-tetrahydro-2H-pyrido[4,3-d]pyrimidin-1-yl]phenyl}acetamide [Compound A]
- IC50 (NCI-H1573; [3]): 82 ± 11 nM
- IC50 (MV522; [3]): 1 nM
- IC50 (NCI-H1792; [3]): 59 ± 23 nM
- IC50 (NCI-H1355; [3]): 67 ± 24 nM
- IC50 (NCI-H2291; [3]): 4 nM
- IC50 (CORL23; [3]): 989 ± 86 nM
- IC50 (NCI-H2030; [3]): > 1000 nM
- IC50 (NCI-H441; [3]): > 1000 nM
- IC50 (NCI-H460; [3]): 37 ± 11 nM
- IC50 (NCI-H2347; [3]): 7 ± 2 nM
- IC50 (NCI-H1299; [3]): 277 ± 92 nM
- IC50 (NCI-H157; [3]): > 1000 nM
- IC50 (SW900; [3]): 141 ± 2 nM
- IC50 (NCI-H23; [3]): 31 ± 2 nM
- IC50 (NCI-H1755; [3]): 45 ± 6 nM
- IC50 (A549; [3]): 32 ± 9 nM
- IC50 (NCI-H2009; [3]): 204 ± 78 nM
- IC50 (Calu1; [3]): > 1000 nM
- IC50 (HOP62; [3]): > 1000 nM
- number of lines sensitive (IC50s<100 nM) [1]: 17
